Data published in EP2272817A1, “PAI-1 INHIBITOR” (Institute of Medicinal Molecular Design, Inc., priority 2008, dated 2009).

Biological target: recombinant human PAI-1 (Homo sapiens, UniProt P05121)
Assay: Test Example 2: Human PAI-1 Inhibitory Activity (pH 7.4 HEPES buffer, 10 minutes incubation with two-chain tPA)
Assay type: biochemical
Design: purchased Molecular Innovations, Inc
Settings: read-out: Inhibition Rate of PAI-1 Activity (%)
Method: 0.1 M HEPES, 0.1 M NaCl. 1 mM EDTA. 0.1 % Polyethylene glycol 8,000 (Hampton Research Corporation),
2 mM Dimethyldecylphoshine oxide [Apo-10] (Fluka Corporation)

recombinant human PAI-1, sequence (P05121 24-402): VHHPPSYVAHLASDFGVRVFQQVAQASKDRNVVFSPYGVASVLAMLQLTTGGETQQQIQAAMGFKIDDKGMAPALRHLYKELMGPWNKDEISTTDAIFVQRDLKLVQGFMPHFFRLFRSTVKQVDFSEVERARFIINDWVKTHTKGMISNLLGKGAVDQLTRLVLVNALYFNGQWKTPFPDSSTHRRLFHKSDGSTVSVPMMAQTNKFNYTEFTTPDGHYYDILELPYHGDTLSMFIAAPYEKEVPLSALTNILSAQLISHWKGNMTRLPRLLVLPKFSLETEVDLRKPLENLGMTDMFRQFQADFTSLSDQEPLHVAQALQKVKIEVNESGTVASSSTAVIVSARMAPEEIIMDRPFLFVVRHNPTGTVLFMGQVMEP

SMILES	inhibition at 0.1 µM [%]	inhibition at 0.3 µM [%]	inhibition at 1 µM [%]	inhibition at 3 µM [%]	inhibition at 10 µM [%]	inhibition at 25 µM [%]
CC(C)(C)c1cccc(Oc2cc(-c3cccc(OC(F)(F)F)c3)ccc2CCC(=O)O)c1 [Compound 515]	12	16	86	> 99	–	–
CCCCCCCCOc1ccc(-c2ccc(OC(F)(F)F)cc2)cc1N(CCCCc1ccccc1)C(=O)C(=O)O [Compound 353]	6	19	87	87	–	–
CCCCCCCCCOc1ccc(N(CCCCc2ccccc2)C(=O)C(=O)O)cc1-c1ccc(OC(F)(F)F)cc1 [Compound 387]	66	> 99	> 99	> 99	–	–
CCCCCOc1ccc(-c2ccc(OC(F)(F)F)cc2)cc1N(CCCOCc1ccccc1)C(=O)C(=O)O [Compound 655]	3	0	44	97	–	–
CCCCC(Oc1cc(-c2ccc(OC(F)(F)F)cc2)ccc1OCCCCc1ccc(Cl)cc1)C(=O)O (centres unmarked) [Compound 325]	11	5	85	91	–	–
CC(C)c1ccccc1Oc1cc(-c2ccc(OC(F)(F)F)cc2)ccc1OCC(=O)O [Compound 513]	17	7	69	> 99	–	–
CCCCCCCCCCCCCCCOc1ccc(-c2ccc(OC(F)(F)F)cc2)cc1N(CCCCc1ccccc1)C(=O)C(=O)O [Compound 375]	73	97	> 99	79	–	–
CCCCCCCOc1ccc(-c2ccc(OC(F)(F)F)cc2)cc1N(CCCCc1ccccc1)C(=O)C(=O)O [Compound 352]	0	4	72	90	–	–
CCCCCCCOc1cc(-c2ccc(OC(F)(F)F)cc2)ccc1N(CCCCc1ccccc1)C(=O)C(=O)O [Compound 386]	5	18	> 99	> 99	–	–
CN(C(=O)c1ccc(OC(F)(F)F)cc1)c1ccc(OCc2ccc(C(C)(C)C)cc2)c(CCC(=O)O)c1 [Compound 416]	–	–	26	54	> 99	> 99
O=C(O)/C=C/c1ccc(-c2ccc(OC(F)(F)F)cc2)cc1OCCCOCc1ccccc1 [Compound 487]	0	3	26	98	–	–

Other lines, results leading:

inhibition at 0.1 µM [%]	inhibition at 0.3 µM [%]	inhibition at 1 µM [%]	inhibition at 3 µM [%]	inhibition at 10 µM [%]	inhibition at 25 µM [%]	SMILES
6	13	91	> 99	–	–	CC(C)c1ccccc1Oc1cc(-c2ccc(OC(F)(F)F)cc2)ccc1/C=C/C(=O)O [Compound 490]
1	1	74	96	–	–	CCCCC(Nc1cc(-c2ccc(OC(F)(F)F)cc2)ccc1Oc1ccc(C(C)(C)C)cc1)C(=O)O (centres unmarked) [Compound 423]
9	11	58	98	–	–	CC(C)(C)c1ccc(Oc2cc(-c3ccc(OC(F)(F)F)cc3)ccc2/C=C\C(=O)O)cc1 [Compound 450]
16	39	98	> 99	–	–	CC(C)c1ccc(Sc2cc(-c3ccc(OC(F)(F)F)cc3)ccc2/C=C/C(=O)O)cc1 [Compound 516]
2	11	43	> 99	–	–	O=C(O)CCc1ccc(-c2ccc(OC(F)(F)F)cc2)cc1Oc1ccc(C(F)(F)F)cc1 [Compound 474]
20	50	95	> 99	–	–	CC(C)(C)c1ccc(Sc2cc(-c3ccc(OC(F)(F)F)cc3)ccc2CCC(=O)O)cc1 [Compound 517]
